According to ChEMBL document CHEMBL4130488, “Synthesis and biological evaluation of novel non-racemic indole-containing allocolchicinoids” (Eur J Med Chem, 2017):
Active and inactive are the calls of the source. The rule behind the calls is not given here.

Assays:
COLO357 [1] = test: Induction of cell cycle arrest in human Colo-357 cells assessed as accumulation at G2/M phase at 5 uM incubated for 72 hrs by propidium iodide staining based flow cytometry (reference value: 31%); type: functional
COLO357 [2] = test: Induction of mitochondrial changes in human Colo-357 cells at 5 uM incubated for 3 hrs by flow cytometry; type: functional, cell-based
COLO357 [3] = test: Induction of apoptosis in human Colo-357 cells at 5 uM incubated for 72 hrs by propidium iodide staining based flow cytometry (reference value: 12.4%); type: functional
COLO357 [4] = test: Cytotoxic activity in human Colo-357 cells assessed as reduction in cell viability incubated for 72 hrs by MTT assay; type: functional, cell-based; details: COLO357, 72 h
[5] = Gastrointestinal toxicity in human HT-29 cells assessed as effect on golgi apparatus at 5 uM incubated for 3 hrs by flow cytometry; type: cell-based; details: ht-29, 3 h
Homo sapiens [6] = organism: Homo sapiens; test: Inhibition of beta tubulin assembly in human Colo-357 cells at 5 uM incubated for 3 hrs by anti-tubulin antibody based confocal microscopy; type: cell-based
[7] = Gastrointestinal toxicity in human HT-29 cells assessed as mitochondrial stimulation at 5 uM incubated for 3 hrs by flow cytometry; type: cell-based; details: ht-29, 3 h
[8] = Gastrointestinal toxicity in human HT-29 cells assessed as effect on EPR at 5 uM incubated for 3 hrs by flow cytometry; type: cell-based; details: ht-29, 3 h
[9] = Gastrointestinal toxicity in human HT-29 cells assessed as effect on endosomes at 5 uM incubated for 3 hrs by flow cytometry; type: cell-based; details: ht-29, 3 h
COLO357 [10] = test: Induction of cell cycle arrest in human Colo-357 cells assessed as accumulation at […] phase at 5 uM incubated for 72 hrs by propidium iodide staining based flow cytometry (reference value: 1.8%); type: functional
COLO357 [11] = test: Growth inhibition of human Colo-357 cells incubated for 72 hrs by MTT assay; type: functional
Homo sapiens [12] = organism: Homo sapiens; test: Inhibition of beta tubulin assembly in human Colo-357 cells at 5 uM incubated for 24 hrs by anti-tubulin antibody based confocal microscopy; type: cell-based
[13] = Gastrointestinal toxicity in human HT-29 cells assessed as effect on membrane integrity at 5 uM incubated for 3 hrs by flow cytometry; type: cell-based; details: ht-29, 3 h
HEK293 [14] = test: Cytotoxic activity in HEK293 cells assessed as reduction in cell viability at 0.1 to 100000 nM incubated for 24 hrs by MTT assay; type: cell-based; details: human, hek293, 24 h, 100 µM
[15] = Gastrointestinal toxicity in human HT-29 cells assessed as lysosomal membrane potential at 5 uM incubated for 3 hrs by flow cytometry; type: cell-based; details: ht-29, 3 h
COLO357 [16] = test: Induction of cell cycle arrest in human Colo-357 cells assessed as accumulation at G phase at 5 uM incubated for 72 hrs by propidium iodide staining based flow cytometry (reference value: 56.6%); type: functional
HEK293 [17] = test: Cytotoxic activity in HEK293 cells assessed as reduction in cell viability incubated for 72 hrs by MTT assay; type: cell-based; details: Homo sapiens, HEK293, 72 h
PANC-1 = test: Cytotoxic activity in human PANC1 cells assessed as reduction in cell viability at 0.1 to 100000 nM incubated for 24 hrs by MTT assay; type: functional, cell-based
MIA PaCa-2 = test: Cytotoxic activity in human MIAPaCa2 cells assessed as reduction in cell viability incubated for 72 hrs by MTT assay; type: functional, cell-based; details: MIA PaCa-2, 72 h
HT-29 = test: Cytotoxic activity in human HT-29 cells assessed as reduction in cell viability at 0.1 to 100000 nM incubated for 24 hrs by MTT assay; type: functional, cell-based
[18] = Gastrointestinal toxicity in human HT-29 cells assessed as increase in mitochondrial membrane potential at 5 uM incubated for 3 hrs by flow cytometry; type: cell-based; details: ht-29, 3 h
[19] = Gastrointestinal toxicity in human HT-29 cells assessed as increase in mitochondrial number at 5 uM incubated for 3 hrs by flow cytometry; type: cell-based; details: ht-29, 3 h
[20] = Gastrointestinal toxicity in human HT-29 cells assessed as relocation from perinuclear position to cytoplasm at 5 uM incubated for 3 hrs by flow cytometry; type: cell-based; details: ht-29, 3 h

Row | SMILES | Activity (COLO357 [1]) | Activity (COLO357 [3]) | IC50 (COLO357 [4]; read-out: IC50) | Activity [5] | Activity [8] | Activity [9] | Activity (COLO357 [10]) | growth inhibition (GI) (COLO357 [11]) | inhibition (Homo sapiens [12]) | Activity [13] | Activity [15] | Activity (COLO357 [16]) | IC50 (HEK293 [17]) | IC50 (MIA PaCa-2; read-out: IC50) | other results
1 | COc1c(Br)c2c(c(OC)c1OC)-c1cc3cc(CO)n(C)c3cc1[C@@H](NC(C)=O)CC2 | 63% | 25% | 0.3 nM | Non-Toxic | Non-Toxic | Non-Toxic | 0.2% | 60 - 80% | Active | Non-Toxic | Non-Toxic | 12% | 6.4 nM | < 0.1 nM | Activity (COLO357 [2]): Active; inhibition (Homo sapiens [6]): Active; Activity [7]: Non-Toxic; Activity (HEK293 [14]): Non-Toxic; Activity (PANC-1): inactive; Activity (HT-29): Active
2 | COc1cc2c(c(OC)c1OC)-c1ccc(OC)c(=O)cc1[C@@H](NC(C)=O)CC2 [COLCHICINE] | 75% | 12.4% | – | Non-Toxic | Non-Toxic | Non-Toxic | 0.2% | 60 - 80% | Active | Non-Toxic | Toxic | 12.6% | 32 nM | – | Activity [18]: Toxic; IC50 (COLO357 [4]): 1.3 nM; Activity [19]: Toxic; Activity [20]: Toxic; IC50 (MIA PaCa-2): 1.3 nM
3 | COc1c(Br)c2c(c(OC)c1OC)-c1cc3cc(CO)[nH]c3cc1[C@@H](NC(C)=O)CC2 | 61% | 23% | 3.5 nM | – | – | – | 0.3% | 60 - 80% | Active | – | – | 16% | 160 nM | 10 nM | –
